Assay [1] relates to B. bifidum 32403. The experiment in a line: BioLector growth on carbon sources. Format: cell-based, Bifidobacterium bifidum. The note with it: for Ability to grow on carbon source: 1% carbon source in MRS without glucose, 37° C., up to 72 hours, anaerobic. How it is done: (§1) Initial overnight cultures in de Man, Rogosa, and Sharpe (MRS) medium with glucose (Merck, cat #110661) were prepared in an anaerobic chamber with mixed gas (90% N2, 5% CO2, and 5% H2) at 37° C. From the overnight cultures strains were subcultured 1:100 or 1:10 (if slow growing) into fresh MRS (with glucose) and grown to mid-log (without shaking) in the anerobic chamber at 37° C. For the carbohydrate utilization analysis, a BioLector (automated culturomics equipment, Biosciences) was used. Cells were inoculated 1:100 into MRS (without glucose, Liofilchem Cat #610144) in a 48 well MTP plate (Biosciences) containing 1% of one of the following carbon sources: glucose, lactose, a HMO mixture (containing 2′FL, 2′FL: DFL (range of 6:1-8:1), 3FL, 3′SL, 6′SL, LNnT and LNT in equal portions), HMO mixture+lactose or sterile DI water (as no sugar control) in a final volume of 2 mL and grown in the BioLector at 37° C. for up to 72 hours, shaking at 400 rpm under anaerobic conditions and continuous nitrogen gas flow. If a strain grew on the HMO mixture the experiment was repeated with the individual HMOs of the mixture as carbon source. Change in biomass, pH, and dissolved oxygen was monitored every 20 minutes by the BioLector. A minimum of two replicates were completed for each carbon source. Samples were transferred to a 96 deep-well plate, spun down at 4000 rpm for 10 min at 4° C., and supernatants removed for analysis or stored at −80° C. until further analysis.

In assay [2] the test system is B. bifidum HA-132. The experiment in a line: BioLector growth on carbon sources. The assay is classed as cell-based, Bifidobacterium bifidum. The note with it: 1% carbon source in MRS without glucose, 37° C., up to 72 hours, anaerobic. How it is done: as §1
In assay [3] the test system is B. bifidum R0071. In words: BioLector growth on carbon sources. Format: cell-based, Bifidobacterium bifidum. On the set-up: key: +++: fast exponential growth reaching a plateau before 45 hours; ++: slower exponential growth reaching a plateau after 45 hours; +: slow almost linear growth, does not reach plateau during the time of fermentation; −: No significant growth for 50 h or more. The note with it: 1% carbon source in MRS without glucose, 37° C., up to 72 hours, anaerobic. As for the experimental part:
as §1

Assay [4] concerns B. infantis HA-116. In words: BioLector growth on carbon sources. Format: cell-based, Bifidobacterium infantis. On the set-up: key: +++: fast exponential growth reaching a plateau before 45 hours; ++: slower exponential growth reaching a plateau after 45 hours; +: slow almost linear growth, does not reach plateau during the time of fermentation; −: No significant growth for 50 h or more. The note with it: 1% carbon source in MRS without glucose, 37° C., up to 72 hours, anaerobic. How it is done: as §1

In assay [5] the test system is B. infantis R0033. In words: BioLector growth on carbon sources. Format: cell-based, Bifidobacterium infantis. More on the design: key: +++: fast exponential growth reaching a plateau before 45 hours; ++: slower exponential growth reaching a plateau after 45 hours; +: slow almost linear growth, does not reach plateau during the time of fermentation; −: No significant growth for 50 h or more. The note with it: 1% carbon source in MRS without glucose, 37° C., up to 72 hours, anaerobic. As for the experimental part:
as §1

The subject of assay [6] is B. bifidum R0071. In words: Metabolomics of culture supernatants (NMN, NAD+). The assay is classed as cell-based, Bifidobacterium bifidum. As for the experimental part:
as §1, with “analysis. Sample supernatants were analyzed using metabolomics by Metabolon (NC, USA).” for “analysis.”

The subject of assay [7] is B. infantis HA-116. In words: Metabolomics of culture supernatants (NMN, NAD+). Format: cell-based, Bifidobacterium infantis. How it is done: as §1, with “[…] Sample supernatants” for “Samples”, “analyzed using metabolomics by Metabolon (NC, USA).” for “transferred to a 96 deep-well plate, spun down at 4000 rpm for 10 min at 4° C., and supernatants removed for analysis or stored at −80° C. until further analysis.”

The subject of assay [8] is B. infantis R0033. The experiment in a line: Metabolomics of culture supernatants (NMN, NAD+). The assay is classed as cell-based, Bifidobacterium infantis. As for the experimental part: as §1, with “[…] Sample supernatants” for “Samples”, “analyzed using metabolomics by Metabolon (NC, USA).” for “transferred to a 96 deep-well plate, spun down at 4000 rpm for 10 min at 4° C., and supernatants removed for analysis or stored at −80° C. until further analysis.”

Assay [9] concerns L. reuteri DSM 12246. In words: BioLector growth on carbon sources. The note with it: FIG. 3B. The assay is classed as cell-based, Lactobacillus reuteri. How it is done: as §1, with “Samples were transferred to a 96 deep-well plate, spun down at 4000 rpm for 10 min at 4° C., and supernatants removed for analysis or stored at −80° C. until further analysis.” left out
Assay [10] concerns L. plantarum TIFN101. In words: BioLector growth on carbon sources. The assay is classed as cell-based, Lactobacillus plantarum. The note with it: FIG. 3C. How it is done:
as §1, with “Samples were transferred to a 96 deep-well plate, spun down at 4000 rpm for 10 min at 4° C., and supernatants removed for analysis or stored at −80° C. until further analysis.” left out

For assay [11], the system named is L. reuteri DSM 12246. In words: Metabolomics of culture supernatants (NMN, NAD+). The assay is classed as cell-based, Lactobacillus reuteri. As for the experimental part: as §1, with “[…] Sample supernatants” for “Samples”, “analyzed using metabolomics by Metabolon (NC, USA).” for “transferred to a 96 deep-well plate, spun down at 4000 rpm for 10 min at 4° C., and supernatants removed for analysis or stored at −80° C. until further analysis.”

Assay [12] deals with L. plantarum TIFN101. In words: Metabolomics of culture supernatants (NMN, NAD+). Format: cell-based, Lactobacillus plantarum. As for the experimental part: as §1, with “[…] Sample supernatants” for “Samples”, “analyzed using metabolomics by Metabolon (NC, USA).” for “transferred to a 96 deep-well plate, spun down at 4000 rpm for 10 min at 4° C., and supernatants removed for analysis or stored at −80° C. until further analysis.”

For the compound `CC(=O)N[C@H]1[C@H](O[C@H]2[C@@H](O)[C@@H](CO)O[C@@H](O[C@H]3[C@H](O)[C@@H](O)C(O)O[C@@H]3CO)[C@@H]2O)O[C@H](CO)[C@@H](O[C@@H]2O[C@H](CO)[C@H](O)[C@H](O)[C@H]2O)[C@@H]1O` (mixture of isomers) [LNnT, lacto-N-neotetraose], the “Ability to grow on carbon source” value was “+++ (fast exponential growth reaching a plateau before 45 hours)” in assay [1]; “+++ (fast exponential growth reaching a plateau before 45 hours)” in assay [2]; “++ (slower exponential growth reaching a plateau after 45 hours)” in assay [3]; “+” in assay [4]; “−” in [5]. Also, the “NMN production (in words)” value in [6] is reported as “low amounts”.

On to `CC(=O)N[C@H]1[C@H]([C@H](O)[C@H](O)CO)O[C@@](O[C@H]2[C@@H](O)[C@@H](CO)O[C@@H](O[C@H]3[C@H](O)[C@@H](O)C(O)O[C@@H]3CO)[C@@H]2O)(C(=O)O)C[C@@H]1O` (some centres unmarked) [3′SL, 3′-sialyllactose], for which the “Ability to grow on carbon source” value in [1] is “+++ (fast exponential growth reaching a plateau before 45 hours)”; in [2], “+++ (fast exponential growth reaching a plateau before 45 hours)”; in [3], “−”; in assay [4], “−”; in assay [5], “−”.

As to `CC(=O)N[C@H]1[C@H]([C@H](O)[C@H](O)CO)O[C@@](OC[C@H]2O[C@@H](O[C@H]3[C@H](O)[C@@H](O)[C@H](O)O[C@@H]3CO)[C@H](O)[C@@H](O)[C@H]2O)(C(=O)O)C[C@@H]1O` [6′SL, 6′-sialyllactose], the “Ability to grow on carbon source” value in assay [1] is reported as “+++ (fast exponential growth reaching a plateau before 45 hours)”; in assay [2], “+++ (fast exponential growth reaching a plateau before 45 hours)”; in [3] it was “−”; in assay [4], “−”; in assay [5] it was “−”.

In the case of `C[C@@H]1O[C@@H](O[C@H]2[C@H](O[C@H]3[C@H](O[C@@H]4O[C@@H](C)[C@@H](O)[C@@H](O)[C@@H]4O)[C@@H](O)C(O)O[C@@H]3CO)O[C@H](CO)[C@H](O)[C@@H]2O)[C@@H](O)[C@H](O)[C@@H]1O` (some centres unmarked) [DFL, difucosyllactose], the “NAD+ production compared with growth on lactose (in words)” value in assay [7] and in assay [8] was “a bit more” throughout.

For the compound `C[C@H](O)[C@@H](O)[C@@H](O)[C@H](O)C=O` [L-fucose], in [1] (BioLector, FIG. 3A, FIG. 6), the “Growth on carbon source (in words)” value is given as “not able to grow”.

For the compound `CC(=O)N[C@H]1[C@H](O[C@H]2[C@@H](O)[C@@H](CO)O[C@@H](O[C@H]3[C@H](O)[C@@H](O)C(O)O[C@@H]3CO)[C@@H]2O)O[C@H](CO)[C@@H](O)[C@@H]1O[C@@H]1O[C@H](CO)[C@H](O)[C@H](O)[C@H]1O` (some centres unmarked) [LNT, lacto-N-tetraose], the “Ability to grow on carbon source” value in assay [1] is given as “+++ (fast exponential growth reaching a plateau before 45 hours)”; in [2], “+++ (fast exponential growth reaching a plateau before 45 hours)”; in [3], “+++ (fast exponential growth reaching a plateau before 45 hours)”; in assay [4], “+”; in assay [5] it was “−”. The “NMN production (in words)” value in [6] is on record as “low amounts”.

On to `OC[C@H]1O[C@@H](O[C@H]2[C@H](O)[C@@H](O)C(O)O[C@@H]2CO)[C@H](O)[C@@H](O)[C@H]1O` (some centres unmarked) [Lactose, lactose], for which the “Ability to grow on carbon source” value was “+++ (fast exponential growth reaching a plateau before 45 hours)” in assay [1]; “++ (slower exponential growth reaching a plateau after 45 hours)” in assay [2]; “+++ (fast exponential growth reaching a plateau before 45 hours)” in assay [3]; “+++ (fast exponential growth reaching a plateau before 45 hours)” in assay [4]; “+++ (fast exponential growth reaching a plateau before 45 hours)” in assay [5]. Also, the “Growth on carbon source (in words)” value in assay [9] and in assay [10] was “capable of growing” in each case. The “NAD+ production (in words)” value in [6], in assay [11] and in assay [12] was “able to produce NAD+” in each case.
